We go through 24 molecules from patent US9840501B2, “Morpholin-pyridine derivatives” (Hoffmann-La Roche Inc., priority 2014, dated 2017).

Experiment [1] addresses mouse TAAR1 (Mus musculus (Mouse), UniProt Q923Y8). The experiment can be described thus: Radioligand binding assay on mouse TAAR1. Conditions: mouse TAAR1, membranes of stably transfected HEK-293 cells; first value of the pair; read-out: Ki (μM) mouse/rat: mouse. The procedure:
(§1) For the construction of expression plasmids the coding sequences of human, rat and mouse TAAR 1 were amplified from genomic DNA essentially as described by Lindemann et al.. The Expand High Fidelity PCR System (Roche Diagnostics) was used with 1.5 mM Mg^2+ and purified PCR products were cloned into pCR2.1-TOPO cloning vector (Invitrogen) following the instructions of the manufacturer. PCR products were subcloned into the pIRESneo2 vector (BD Clontech, Palo Alto, Calif.), and expression vectors were sequence verified before introduction in cell lines.
(§2) For the generation of stably transfected cell lines HEK293 cells were transfected with the pIRESneo2 expression plasmids containing the TAAR coding sequences (described above) with Lipofectamine 2000 (Invitrogen) according to the instructions of the manufacturer, and 24 hrs post transfection the culture medium was supplemented with 1 mg/ml G418 (Sigma, Buchs, Switzerland). After a culture period of about 10 d clones were isolated, expanded and tested for responsiveness to trace amines (all compounds purchased from Sigma) with the cAMP Biotrak Enzyme immunoassay (EIA) System (Amersham) following the non-acetylation EIA procedure provided by the manufacturer.
Radioligand Binding Assay on Mouse TAAR1
(§3) Membrane Preparation and Radioligand Binding.
(§4) Cells were released from culture flasks using trypsin/EDTA, harvested, washed twice with ice-cold PBS (without Ca^2+ and Mg^2+), pelleted at 1,000 rpm for 5 min at 4° C., frozen and stored at −80° C. Frozen pellets were suspended in 20 ml HEPES-NaOH (20 mM, pH 7.4) containing 10 mM EDTA and homogenized with a Polytron (PT 6000, Kinematica) at 14′000 rpm for 20 s. The homogenate was centrifuged at 48,000×g for 30 min at 4° C. Subsequently, the supernatant was removed and discarded, and the pellet resuspended in 20 ml HEPES-NaOH (20 mM, pH 7.4) containing 0.1 mM EDTA using the Polytron (20 s at 14′000 rpm). This procedure was repeated and the final pellet resuspended in HEPES-NaOH containing 0.1 mM EDTA and homogenized using the Polytron. Typically, aliquots of 2 ml membrane portions were stored at −80° C. With each new membrane batch the dissociation constant (Kd) was determined via a saturation curve. […] Nonspecific binding was defined as the amount of ^3[H]—(S)-4-[(ethyl-phenyl-amino)-methyl]-4,5-dihydro-oxazol-2-ylamine bound in the presence of 10 μM unlabeled ligand. All compounds were tested at a broad range of concentrations (10 pM to 10 μM) in duplicates. […] The 96 deep well plates were incubated for 1 hr at 4° C. Incubations were terminated by rapid filtration through Unifilter-96 plates (Packard Instrument Company) and glass filters GF/C (Perkin Elmer) presoaked for 1 hr in polyethylenimine (0.3%) and washed 3 times with 1 ml of cold binding buffer. After addition of 45 μl of Microscint 40 (PerkinElmer) the Unifilter-96 plate was sealed and after 1 hr the radioactivity counted using a TopCount Microplate Scintillation Counter (Packard Instrument Company).

The target of experiment [2] is rat TAAR1 (Rattus norvegicus (Rat), UniProt Q923Y9). The experiment can be described thus: Radioligand binding assay on rat TAAR1. Conditions: rat TAAR1, membranes of stably transfected HEK-293 cells; second value of the pair; read-out: Ki (μM) mouse/rat: rat. The procedure: as §1, §2
Sequence of rat TAAR1 (Q923Y9 whole entry): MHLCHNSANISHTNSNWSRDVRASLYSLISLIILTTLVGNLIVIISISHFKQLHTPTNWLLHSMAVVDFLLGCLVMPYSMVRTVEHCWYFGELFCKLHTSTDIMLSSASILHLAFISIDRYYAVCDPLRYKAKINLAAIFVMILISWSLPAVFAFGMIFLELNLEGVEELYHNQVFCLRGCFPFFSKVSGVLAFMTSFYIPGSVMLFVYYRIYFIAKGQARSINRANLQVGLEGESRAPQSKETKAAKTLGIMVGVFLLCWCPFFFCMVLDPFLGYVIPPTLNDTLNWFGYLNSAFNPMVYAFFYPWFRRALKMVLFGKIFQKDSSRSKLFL
Radioligand Binding Assay on Rat TAAR1
as §3
as §4, with “1′000” for “1,000”, “48′000×g” for “48,000×g”

Sequence of mouse TAAR1 (Q923Y8 whole entry): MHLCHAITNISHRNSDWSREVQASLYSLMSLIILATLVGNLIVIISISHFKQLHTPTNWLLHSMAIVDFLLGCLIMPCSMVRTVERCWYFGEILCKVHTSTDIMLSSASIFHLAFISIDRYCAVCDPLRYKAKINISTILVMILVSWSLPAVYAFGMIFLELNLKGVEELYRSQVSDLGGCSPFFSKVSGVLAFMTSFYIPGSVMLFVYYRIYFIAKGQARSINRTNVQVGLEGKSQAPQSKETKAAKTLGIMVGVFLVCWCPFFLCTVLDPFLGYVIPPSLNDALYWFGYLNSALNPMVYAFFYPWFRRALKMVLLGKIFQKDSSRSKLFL

On to `Cc1cc(Nc2ccc(C(F)(F)F)cn2)cnc1C1CNCCO1` (racemic) [Example 104, (RS)-5-Methyl-6-morpholin-2-yl-N-[5-(trifluoromethyl)-2-pyridyl]pyridin-3-amine], for which the Ki in experiment [1] was found to be 0.0837 µM; in experiment [2], 0.455 µM.
`CC(C)Cc1cc(C(=O)Nc2ccc([C@@H]3CNCCO3)nc2)[nH]n1` [Example 88, 3-Isobutyl-N-[6-[(2S)-morpholin-2-yl]-3-pyridyl]-1H-pyrazole-5-carboxamide]: the figures for the Ki in experiment [1] and in experiment [2] were 0.0113 µM and 0.011 µM, respectively.
As to `CCCc1n[nH]c(C(=O)Nc2cnc(C3CNCCO3)c(F)c2)c1Cl` (racemic) [Example 114, (RS)-4-Chloro-N-(5-fluoro-6-morpholin-2-yl-3-pyridyl)-3-propyl-1H-pyrazole-5-carboxamide], the figures for the Ki in experiment [1] and in experiment [2] were 0.0048 µM and 0.0221 µM, respectively.
`FC(F)(F)c1ccnc(Nc2ccc([C@@H]3CNCCO3)nc2)c1` [Example 23, 6-[(2S)-Morpholin-2-yl]-N-[4-(trifluoromethyl)-2-pyridyl]pyridin-3-amine]: the Ki amounted to 0.0124 µM in experiment [1] and 0.154 µM in experiment [2].
Regarding `CC(C)c1n[nH]c(C(=O)Nc2ccc([C@H]3CNCCO3)nc2)c1F` [Example 116, 4-Fluoro-3-isopropyl-N-[6-[(2R)-morpholin-2-yl]-3-pyridyl]-1H-pyrazole-5-carboxamide], the Ki in experiment [1] turned out to be 0.015 µM; in experiment [2], 0.12 µM.
As for `O=C(Nc1cnc(C2CNCCO2)c(Cl)c1)c1ccnc(C(F)(F)F)c1` (racemic) [Example 107, (RS)—N-(5-Chloro-6-morpholin-2-yl-3-pyridyl)-2-(trifluoromethyl)pyridine-4-carboxamide], the Ki in experiment [1] turned out to be 0.143 µM; in experiment [2], 0.371 µM.
For `FC(F)(F)c1nccc(Nc2ccc(C3CNCCO3)nc2)n1` (racemic) [Example 17, (RS)—N-(6-Morpholin-2-yl-3-pyridyl)-2-(trifluoromethyl)pyrimidin-4-amine], in that order: 0.0382 µM and 0.466 µM.
The corresponding values for `O=C(Nc1ccc([C@H]2CNCCO2)nc1)Nc1cccc(C(F)(F)F)c1` [Example 62, 1-[6-[(2R)-Morpholin-2-yl]-3-pyridyl]-3-[3-(trifluoromethyl)phenyl]urea] are 0.0035 µM and 0.0077 µM.
For the molecule `FC(F)(F)c1ccc(Nc2cnc(C3CNCCO3)nc2)cc1` (racemic) [Example 71, (RS)-2-Morpholin-2-yl-N-[4-(trifluoromethyl)phenyl]pyrimidin-5-amine], the figures for the Ki in experiment [1] and in experiment [2] were 0.0072 µM and 0.195 µM, respectively.
As to `Fc1cc(Nc2ccc(C(F)(F)F)cn2)cnc1C1CNCCO1` (racemic) [Example 111, (RS)-5-Fluoro-6-morpholin-2-yl-N-[5-(trifluoromethyl)-2-pyridyl]pyridin-3-amine], the Ki in experiment [1] was 0.0128 µM; in experiment [2] it was 0.176 µM.
The corresponding values for `CCc1n[nH]c(C(=O)Nc2ccc([C@H]3CNCCO3)nc2)c1F` [Example 83, 3-Ethyl-4-fluoro-N-[6-[(2R)-morpholin-2-yl]-3-pyridyl]-1H-pyrazole-5-carboxamide] are 0.0083 µM and 0.757 µM.
Turning to `CCCCc1cc(C(=O)Nc2ccc([C@H]3CNCCO3)nc2)[nH]n1` [Example 97, 3-Butyl-N-[6-[(2R)-morpholin-2-yl]-3-pyridyl]-1H-pyrazole-5-carboxamide], the Ki in experiment [1] is 0.0043 µM; in experiment [2], 0.0387 µM.
The corresponding values for `CCOc1ccc(Nc2ccc(C3CNCCO3)nc2)cc1` (racemic) [Example 3, (RS)—N-(4-Ethoxyphenyl)-6-morpholin-2-yl-pyridin-3-amine] are 0.0048 µM and 0.374 µM.
For `CC(C)Cc1n[nH]c(C(=O)Nc2ccc([C@@H]3CNCCO3)nc2)c1F` [Example 89, 4-Fluoro-3-isobutyl-N-[6-[(2S)-morpholin-2-yl]-3-pyridyl]-1H-pyrazole-5-carboxamide], in that order: 0.0133 µM and 0.0297 µM.
In the case of `O=C(Nc1ccc([C@H]2CNCCO2)nc1)c1cccc(C(F)(F)F)c1` [Example 55, N-[6-[(2R)-Morpholin-2-yl]-3-pyridyl]-3-(trifluoromethyl)benzamide], the Ki in experiment [1] came out at 0.0064 µM; in experiment [2], 0.0221 µM.
For `CC(C)n1nc(OCC(F)(F)F)cc1C(=O)Nc1ccc([C@@H]2CNCCO2)nc1` [Example 93, 2-Isopropyl-N-[6-[(2S)-morpholin-2-yl]-3-pyridyl]-5-(2,2,2-trifluoroethoxy)pyrazole-3-carboxamide], in that order: 0.0215 µM and 0.0023 µM.
The corresponding values for `CCCCc1n[nH]c(C(=O)Nc2ccc([C@@H]3CNCCO3)nc2)c1F` [Example 90, 3-Butyl-4-fluoro-N-[6-[(2S)-morpholin-2-yl]-3-pyridyl]-1H-pyrazole-5-carboxamide] are 0.0038 µM and 0.0269 µM.
Consider `Clc1ccc(Nc2cnc(C3CNCCO3)nc2)cc1` (racemic) [Example 70, (RS)—N-(4-Chlorophenyl)-2-morpholin-2-yl-pyrimidin-5-amine], for which the Ki in experiment [1] was 0.0186 µM; in experiment [2] it was 1.45 µM.
For `O=C(Nc1ccc([C@@H]2CNCCO2)nc1)c1ccc(Cl)cc1` [Example 31, 4-Chloro-N-[6-[(2S)-morpholin-2-yl]-3-pyridyl]benzamide], in that order: 0.003 µM and 0.102 µM.
Regarding `Clc1ccc(Nc2ccc([C@@H]3CNCCO3)nc2)nc1` [Example 20, N-(5-Chloro-2-pyridyl)-6-[(2S)-morpholin-2-yl]pyridin-3-amine], the Ki in experiment [1] is 0.0019 µM; in experiment [2] it was 0.0751 µM.
The corresponding values for `Cc1cc(C(=O)Nc2ccc([C@H]3CNCCO3)nc2)nc(C(F)(F)F)n1` [Example 68, (R)-6-Methyl-N-(6-(morpholin-2-yl)pyridin-3-yl)-2-(trifluoromethyl)pyrimidine-4-carboxamide] are 0.0731 µM and 0.0469 µM.
Take `CCCc1n[nH]c(C(=O)Nc2cnc(C3CNCCO3)c(C)c2)c1Cl` (racemic) [Example 118, (RS)-4-Chloro-N-(5-methyl-6-morpholin-2-yl-3-pyridyl)-3-propyl-1H-pyrazole-5-carboxamide]: the Ki in experiment [1] came out at 0.0468 µM; in experiment [2] it was 0.597 µM.
For `O=C(Nc1ccc([C@@H]2CNCCO2)nc1)c1[nH]nc(C2CC2)c1F` [Example 80, 3-Cyclopropyl-4-fluoro-N-[6-[(2S)-morpholin-2-yl]-3-pyridyl]-1H-pyrazole-5-carboxamide], in that order: 0.0065 µM and 0.0856 µM.
`O=C(Nc1ccc(F)cc1)Nc1ccc(C2CNCCO2)nc1` (racemic) [Example 9, (RS)-1-(4-Fluorophenyl)-3-(6-morpholin-2-yl-3-pyridyl)urea]: the Ki in experiment [1] is 0.0071 µM; in experiment [2] it was 0.0106 µM.
